Laboratory results published in the supplement of paper PMC10307832.

Assays:
Assay in all cases: relative viability (nuclei count vs DMSO), 5 days (fraction); higher = more cells survive
IU1-47 + Decitabine = compound: CC1=CC(=C(N1C2=CC=C(C=C2)Cl)C)C(=O)CN3CCCCC3 [IU1-47] + Nc1ncn([C@H]2C[C@H](O)[C@@H](CO)O2)c(=O)n1 [Decitabine] (partner 2 µM)
Procedure, shortened: (§1)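 Five library-drug doses in √10 steps were combined with a fixed anchor-drug dose, or a single drug was given alone, by pin tool to lung cancer cell lines in 1536-well plates the day after seeding. Nuclei were stained and counted after 5 days. Relative viability is the nuclei count in treated wells over that in vehicle wells, taken as the median of duplicate plates.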

IU1-47 + Pictilisib = compound: CC1=CC(=C(N1C2=CC=C(C=C2)Cl)C)C(=O)CN3CCCCC3 [IU1-47] + CS(=O)(=O)N1CCN(Cc2cc3nc(-c4cccc5[nH]ncc45)nc(N4CCOCC4)c3s2)CC1 [Pictilisib] (partner 1 µM)
Procedure, shortened: as §1

FG-4592 + AZD7762 = compound: Cc1nc(C(=O)NCC(=O)O)c(O)c2ccc(Oc3ccccc3)cc12 [FG-4592] + NC(=O)Nc1cc(-c2cccc(F)c2)sc1C(=O)N[C@H]1CCCNC1 [AZD7762] (partner 0.2 µM)
Procedure, shortened: as §1

FG-4592 + Trametinib = compound: Cc1nc(C(=O)NCC(=O)O)c(O)c2ccc(Oc3ccccc3)cc12 [FG-4592] + CC(=O)Nc1cccc(-n2c(=O)n(C3CC3)c(=O)c3c(Nc4ccc(I)cc4F)n(C)c(=O)c(C)c32)c1 [Trametinib] (partner 0.02 µM)
Procedure, shortened: as §1

Cell Line | relative viability (IU1-47 + Decitabine; first compound 0.08 µM) | relative viability (IU1-47 + Decitabine; first compound 0.253 µM) | relative viability (IU1-47 + Decitabine; first compound 0.8 µM) | relative viability (IU1-47 + Decitabine; first compound 2.53 µM) | relative viability (IU1-47 + Decitabine; first compound 8 µM) | relative viability (IU1-47 + Pictilisib; first compound 0.08 µM) | relative viability (IU1-47 + Pictilisib; first compound 0.253 µM) | relative viability (IU1-47 + Pictilisib; first compound 0.8 µM) | relative viability (IU1-47 + Pictilisib; first compound 2.53 µM) | relative viability (IU1-47 + Pictilisib; first compound 8 µM) | relative viability (FG-4592 + AZD7762; first compound 0.08 µM) | relative viability (FG-4592 + AZD7762; first compound 0.253 µM) | relative viability (FG-4592 + AZD7762; first compound 0.8 µM) | relative viability (FG-4592 + AZD7762; first compound 2.53 µM) | relative viability (FG-4592 + AZD7762; first compound 8 µM) | relative viability (FG-4592 + Trametinib; first compound 0.08 µM) | relative viability (FG-4592 + Trametinib; first compound 0.253 µM) | relative viability (FG-4592 + Trametinib; first compound 0.8 µM) | relative viability (FG-4592 + Trametinib; first compound 2.53 µM) | relative viability (FG-4592 + Trametinib; first compound 8 µM)
PC-14 | 0.177 | 0.205 | 0.235 | 0.261 | 0.209 | 0.896 | 0.706 | 0.673 | 0.82 | 0.437 | 0.356 | 0.341 | 0.284 | 0.342 | 0.282 | 0.708 | 0.717 | 0.71 | 0.833 | 0.496
RERF-LC-KJ | 0.784 | 0.912 | 0.673 | 0.639 | 0.578 | 0.538 | 0.659 | 0.41 | 0.489 | 0.595 | 0.913 | 0.992 | 0.815 | 0.883 | 0.969 | 0.841 | 0.848 | 0.763 | 0.876 | 0.857
